Reference: ChEMBL document CHEMBL4602732, “Optimizing Pyrazolopyrimidine Inhibitors of Calcium Dependent Protein Kinase 1 for Treatment of Acute and Chronic Toxoplasmosis” (J Med Chem, 2020)
pEC50: −log10 of the molar value. The source made the active and inactive calls. The rule behind the calls is not given here.

Tests used:
[1] = test system: Src (human) versus Toxoplasma gondii CDPK1; assay: Selectivity ratio of IC50 for inhibition of human Src expressed in Escherichia coli BL21 to IC50 for inhibition of Toxoplasma gondii full-length wild-type C-terminal His-tagged CDPK1 expressed in Escherichia coli BL21(DE3)V2RpAcYc-LIC+LamP; type: toxicity; conditions: read-out: Ratio IC50
Toxoplasma gondii [2] = assay: Antiparasitic activity against Toxoplasma gondii type III CTG tachyzoites infected in HFF assessed as reduction in parasite growth; type: functional, organism-based
Toxoplasma gondii [3] = assay: Antiparasitic activity against type 2 Toxoplasma gondii ME49 tachyzoites infected in HFF assessed as reduction in parasite growth; type: functional, organism-based
[4] = Protein binding in mouse brain assessed as unbound fraction; type: ADME, tissue-based
Cytochrome P450 2C19 = Cytochrome P450 2C19 (Homo sapiens, UniProt P33261); assay: Inhibition of CYP2C19 in human liver microsomes using S-mephenytoin as substrate measured after 10 mins by LC-MS/MS analysis; type: ADME
Chain of Cytochrome P450 2C19 (P33261 whole entry, the tested form may be a part): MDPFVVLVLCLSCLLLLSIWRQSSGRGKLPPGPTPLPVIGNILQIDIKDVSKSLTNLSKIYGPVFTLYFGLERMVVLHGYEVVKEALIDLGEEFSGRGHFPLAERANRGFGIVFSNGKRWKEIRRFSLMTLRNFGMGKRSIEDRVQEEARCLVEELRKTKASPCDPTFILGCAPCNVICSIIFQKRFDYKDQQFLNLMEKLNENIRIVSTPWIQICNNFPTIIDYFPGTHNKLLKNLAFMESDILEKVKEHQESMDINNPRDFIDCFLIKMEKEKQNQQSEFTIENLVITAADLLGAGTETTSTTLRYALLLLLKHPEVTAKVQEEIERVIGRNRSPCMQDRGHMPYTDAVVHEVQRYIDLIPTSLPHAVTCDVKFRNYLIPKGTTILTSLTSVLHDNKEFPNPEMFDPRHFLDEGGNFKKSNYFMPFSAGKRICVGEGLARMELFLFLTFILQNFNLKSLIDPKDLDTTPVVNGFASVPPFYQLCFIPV

[5] = molecular target: T1, ALK5 (TGF-beta receptor type-1) (Homo sapiens, UniProt P36897); assay: Inhibition of human […] N-terminal GST-tagged ALK5 (200 to 503 residues) expressed in baculovirus expression system at 1 uM by Lanthascreen assay relative to control
T1 sequence (P36897 whole entry): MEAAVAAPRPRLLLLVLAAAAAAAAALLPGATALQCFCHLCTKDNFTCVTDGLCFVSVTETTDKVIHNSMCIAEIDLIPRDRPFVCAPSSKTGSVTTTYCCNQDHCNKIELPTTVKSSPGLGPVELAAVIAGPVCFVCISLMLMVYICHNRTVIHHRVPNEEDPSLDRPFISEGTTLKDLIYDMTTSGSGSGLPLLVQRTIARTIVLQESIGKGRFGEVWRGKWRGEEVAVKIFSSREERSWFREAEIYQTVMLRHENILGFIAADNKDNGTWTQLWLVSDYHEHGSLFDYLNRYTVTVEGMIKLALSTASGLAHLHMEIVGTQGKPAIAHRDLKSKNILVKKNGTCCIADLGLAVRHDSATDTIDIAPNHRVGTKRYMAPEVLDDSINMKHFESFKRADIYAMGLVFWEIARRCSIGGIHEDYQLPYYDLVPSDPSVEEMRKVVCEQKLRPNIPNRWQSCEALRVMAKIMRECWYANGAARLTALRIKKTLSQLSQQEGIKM

[6] = Kinetic solubility of the compound in pH 7.4 phosphate buffer measured after 24 hrs by UV-HPLC analysis; type: physicochemical; conditions: pH 7.4, 24 h
Toxoplasma gondii [7] = assay: Antiparasitic activity against type 1 Toxoplasma gondii RH tachyzoites infected in CD1 mouse assessed as reduction in parasite expansion at 60 mg/kg, po administered once daily via gavage for 7 days by bioluminescence assay; type: functional, organism-based
Toxoplasma gondii [8] = assay: Antiparasitic activity against type 1 Toxoplasma gondii RH tachyzoites infected in CD1 mouse assessed as reduction in parasite dissemination at 60 mg/kg, po administered once daily via gavage for 7 days by bioluminescence assay; type: functional, organism-based
Toxoplasma gondii [9] = assay: Antiparasitic activity against type 1 Toxoplasma gondii RH tachyzoites infected in CD1 mouse assessed as reduction in parasite dissemination at 15 mg/kg, po administered four times daily via gavage for 7 days by bioluminescence assay; type: functional, organism-based
Toxoplasma gondii [10] = assay: Antiparasitic activity against type 1 Toxoplasma gondii RH tachyzoites infected in CD1 mouse assessed as reduction in mouse death at 60 mg/kg, po administered once daily via gavage for 7 days by bioluminescence assay; type: functional, organism-based
Toxoplasma gondii [11] = assay: Antiparasitic activity against type 1 Toxoplasma gondii RH tachyzoites infected in CD1 mouse assessed as reduction in mouse death at 30 mg/kg, po administered twice daily via gavage for 7 days by bioluminescence assay; type: functional, organism-based
Toxoplasma gondii [12] = assay: Antiparasitic activity against type 1 Toxoplasma gondii RH tachyzoites infected in CD1 mouse assessed as reduction in mouse death at 60 mg/kg, po administered once daily via gavage for 7 days followed by lung and brain isolation on 15 days post-infection and co-culture with naive CD1 mouse; type: functional, organism-based
Toxoplasma gondii [13] = assay: Antiparasitic activity against type 1 Toxoplasma gondii RH tachyzoites infected in CD1 mouse assessed as […] at 30 mg/kg, po administered twice daily via gavage for 7 days followed by lung and brain isolation on 15 days post-infection and co-culture with naive CD1 mouse; type: functional
Toxoplasma gondii [14] = assay: Protection against reactivation of type 2 Toxoplasma gondii ME49 infection in sulfadiazin-treated Ifngr1-/- CD1 mouse assessed as increase in mouse survival at 60 mg/kg, po administered twice daily via gavage for 21 days measured up to 30 days; type: functional, organism-based
Toxoplasma gondii [15] = assay: Protection against reactivation of type 2 Toxoplasma gondii ME49 infection in sulfadiazin-treated Ifngr1-/- CD1 mouse assessed as increase in weight gain at 60 mg/kg, po administered twice daily via gavage for 21 days measured up to 30 days; type: functional, organism-based
Toxoplasma gondii [16] = assay: Protection against reactivation of type 2 Toxoplasma gondii ME49 infection in sulfadiazin-treated Ifngr1-/- CD1 mouse assessed as reduction in serological conversion at 60 mg/kg, po administered twice daily via gavage for 21 days followed by brain isolation on 30 days post-infection and co-culture with Ifngr1-/- CD1 mouse; type: functional, organism-based
Toxoplasma gondii [17] = assay: Protection against reactivation of type 2 Toxoplasma gondii ME49 infection in sulfadiazin-treated Ifngr1-/- CD1 mouse assessed as increase in mouse survival at 60 to 120 mg/kg, po administered twice daily via gavage for 8 days measured up to 30 days; type: functional, organism-based

Nc1ncnc2c1c(Oc1cc(C(F)(F)F)ccn1)nn2C1CC1
selectivity ratio [1]: > 1000
pEC50 (Toxoplasma gondii [2]): 6.78
pEC50 (Toxoplasma gondii [3]): 6.59
fraction unbound [4]: 0.101
pEC50 (Cytochrome P450 2C19): 5.24
inhibition at 1 µM [5]: > 50%
Kinetic_solubility [6]: 191 µM
Activity (Toxoplasma gondii [7]): Active
Activity (Toxoplasma gondii [8]): Active
Activity (Toxoplasma gondii [9]): Active
Activity (Toxoplasma gondii [10]): Active
Activity (Toxoplasma gondii [11]): Active
Activity (Toxoplasma gondii [12]): inactive
survival at 30 mg/kg (Toxoplasma gondii [13]): 20%
Activity (Toxoplasma gondii [14]): Active
Activity (Toxoplasma gondii [15]): Active
Activity (Toxoplasma gondii [16]): Active
Activity (Toxoplasma gondii [17]): Active
